The text below walks through data of patent US9889135B2, “Companion diagnostic for CDK4 inhibitors” (Memorial Sloan-Kettering Cancer Center, priority 2013, dated 2018).

SMILES strings stand for the structures.

The subject of assay [1] is LS8107, LS7785-10, LS8313 and LS7785-1 cells. Put plainly: Oil-Red O staining of lipid droplets. It is filed as cell-based, human.
Assay [2] deals with MDM2 in glioma (U87MG, U251, SNB19, DBTRG-05MG) and breast cancer (MDA453, T47D, ZR-75-1, and MCF7) cells. The experiment in a line: MDM2 levels in glioma and breast cancer cell lines. It is filed as cell-based. To be noted: eight glioma and breast cancer cell lines. From the text:
FIG. 19A-C. Senescence associated with the downregulation of MDM2 is p53 and INK4 independent. […] This experiment was repeated three times with similar results in both LS8817 and LS141. […] The p53 mutational status of these cell lines (WT, wild type; R273H and L194F, missense mutations; if-DEL, in-frame deletion of 30 nucleotides at amino acid 368) were obtained from the p53 mutation database and the RIKEN bioresource databank and is consistent with the detection of p21 by immunoblot. (C) SNB19 cells, a p53 mutant and INK4A deficient cell, was transduced with the mutants described in panel A and their effect on senescence determined.
Antibodies against CDK4 (3F121), MDM2 (SMP-14), total RB (IFS), Cyclin A (H432), p16 (C20), and p53 (Bp53-12), were obtained from Santa Cruz Biotechnology, phospho-Rb 780 (#9307) from Cell Signalling, and ARF (3642) from Abeam. Treated cells were lysed with buffer composed of 50 mM Tris-HCl, pH7.4, 250 mM NaCl, 5 mM EDTA, 0.5% NP40, 2 mM PMSF, and supplemented with protease inhibitors. Eighty micrograms of protein were resolved by SDS-PAGE and transferred to PVDF membranes. Membranes were incubated overnight with antibodies (1:1000).

Another assay deals with RB-negative cells. To be noted: cited from earlier work.

For the compound `CC(=O)c1c(C)c2cnc(Nc3ccc(N4CCNCC4)cn3)nc2n(C2CCCC2)c1=O` [PD0332991], the “Oil-Red O staining” value in assay [1] is given as “not increased”. Moreover, the MDM2 levels result in assay [2] is “decreased”. Besides, the “proliferation of RB-negative cells” value in the assay on RB-negative cells is on record as “no effect”.
